In patent publication US20210161929A1, “USES OF VERBASCOSIDE IN TREATMENT OF DIABETIC-ASSOCIATED KDINEY INJURY AND DIABETIC-ASSOCIATED LIVER INJURY” (NANJING UNIVERSITY OF CHINESE MEDICINE, priority 2018, published 2021):

How the values were obtained:
HK-2 cells [1] = assay: Proliferation of high-glucose induced HK-2 cells; assay type: cell-based, human; conditions: for effect on the proliferation of HK-2: in vitro studies, discussion; for OD / inhibition ratio %: 48 hours
Procedure: (§1) Human renal tubular epithelial cells (HK-2) were provided by Nanjing KeyGEN Biotechnology Development Co., Ltd. The complete medium was a low-sugar DMEM with 10% FBS and 1% penicillin-streptomycin solution. The cells were cultured at 37° C. under 5% CO2 and saturated humidity in an incubator. Cells were spread in a 96-well plate and cultured with a 5 mmol/Llow-sugar DMEM for 24 hours. […] The number of cells in each group was detected using a cell counting method after 48 hours of the incubation.

[2] = system: NOX1, NOX2, NOX4, α-SMA, E-cadherin, NF-κB p65, TGF-β1, Smad2, Smad3, Smad4 and Smad7 in HK-2 cells; assay: Protein expression in high-glucose induced HK-2 cells (Western blotting); assay type: cell-based, human; conditions: for effect on the formation of EMT: in vitro studies, HK-2, discussion
Procedure: as §1, with “The expression quantity of related proteins and mRNA in each cell is detected using Western blotting method and Real-time PCR, and the secretion of related factors in cell supernatant is detected using ELISA. […] Human” for “Human”

kidneys of db/db mice = assay: Pathological sections of kidney (HE, PAS) of db/db mice; assay type: in vivo; conditions: 6 weeks, irbesartan 50, verbascoside 70.8 mg·kg^−1·d^−1
db/db mice = assay: Biochemical indexes of db/db mice after 6 weeks of intragastric administration; assay type: in vivo; conditions: ig once a day for 6 weeks, metformin 250, irbesartan 50, verbascoside 70.8 mg·kg^−1·d^−1
Procedure: 32 male db/db mice and 10 male db/m mice of SPF grade, aged 6-8 weeks and weighing 25-40 g, were purchased from Nanjing Biomedical Research Institute of Nanjing University with an animal license number of SCXK (Su 2015-0001).The mice were raised in an animal room under alternating light and dark every 12 hours with constant temperature of 22±2° C. and humidity of 55±10%.
All mice were adaptively fed for 3 weeks, and db/m mice were used as a control group with a total number of 10. Db/db mice were randomly divided into four groups according to blood sugar and body weight each of 8 mice, and the four groups respectively were a model group (M), a metformin group (EJSG, 250 mg·kg^−1·d^−1), an irbesartan group (EBST, 50 mg·kg^−1·d^−1) and a verbascoside group (MRHTG, 70.8 mg·kg^−1·d^−1). The same amount of saline was intragastrically administered(ig) to the mice in the control group and the model group, and the volume of intragastric administration (ig) was 10 mL·kg^−1, and such administration was performed once a day for continuous 6 weeks.
One day before the end of the experiment, urine was collected in a metabolic cage for 12 hours and the urine volume was recorded. Microalbuminuria content was measured and fasting blood glucose (FBG) of mice in each group was measured by tail vein blood sampling. After drug intervention, mice were anesthetized with intraperitoneal injection of 10% chloral hydrate, and blood was collected from eyeballs. The blood was centrifuged at 3000 rpm and 4° C. for 10 minutes to obtain a serum. The serum was then subjected to determination of serum creatinine, blood urea nitrogen, blood insulin, cholesterol, triglyceride, glutamic-pyruvic transaminase and glutamic-oxalacetic transaminase contents.

db/db mice serum = assay: Serum metabonomics (UPLC-QTOF/MS, PLS-DA) of db/db mice; assay type: in vivo; conditions: mouse serum, mean ± SD, n = 6; for Relative distance between administration group and control group in PLS-DA score plot, ESI −: negative ion mode, model group 43.46 ± 3.15; for Relative distance between administration group and control group in PLS-DA score plot, ESI +: positive ion mode, model group 36.62 ± 3.28
Procedure: After 6 weeks of administration, each of the mice was subjected to blood collection by removing eyeballs. The blood sample was centrifuged at 4° C. and 3000 rpm for 10 minutes to obtain a serum. 100 μL of the frozen-thawed serum was mixed uniformly with 300 μL of acetonitrile under vortex for 2 minutes to produce a mixture. The mixture was centrifuged at 4° C. and 13000 rpm for 10 minutes, and the protein precipitate was removed while the supernatant was collected for determination.
Chromatographic conditions: ACQUITY™UPLC BEH C18 column (2.1 mm×100 mm, 1.7 μm); and mobile phase: 0.1% formic acid aqueous solution (A)−acetonitrile (B). The gradient elution of serum was programmed as follows: 0-3 minutes, 95%-55% A; […], 55%-5% A; 13-14 minutes, 5% A. The injection volume was 2 μL and a column temperature of 35° C. was employed.
Mass spectrometry conditions: ESI ion source (ESI^+/ESI^−); mass scanning range: 100-1000 m/z; a capillary voltage of 3.0 kV and a cone voltage of 30 V; an extraction voltage of 2.0 V; ion source temperature and desolvation temperature: respectively 120° C. and 350° C.; cone gas flow rate: 50 L/h; collision energy: 20-50 eV; desolvation gas flow rate: 600 L/h; activation time: 30 ms; and collision gas: high-purity nitrogen. Leucine-enkephalin (ESI^−: 555.2615 m/z, ESI^+: 556.2771 m/z) solution of 200 pg/mL was used as a mass-locking solution at a flow rate of 100 μL/min.
The obtained original mass spectrometry data was processed using Masslynx v4.1 software. The main parameters included: retention time range: 0-14 minutes; m/z range: 100-1000; mass tolerance range: 0.01 Da; peak intensity threshold: 50; mass window: 0.05 Da; retention time window: 0.2 minutes; and automatic detection of 5% peak height and noise. The intensity of each ion was normalized relative to the total ion count to produce a data list consisting of retention time, m/z value and standardized peak area. The data were imported into EZinfo 2.0 for supervised partial least squares discriminant analysis (PLS-DA) and orthogonal partial least squares discriminant analysis (OPLS-DA). The separation of various metabolites between the control group and the model group was shown in the OPLS-DA plot. Potential biomarkers were extracted from the S-plot constructed after OPLS-DA analysis, and each point in the S-plot represented the information of the corresponding variable. The variable importance in the projection (VIP) was measured by the magnitude of the VIP value. The variables were screened according to the VIP value, and the variable with VIP>1 may be selected as a potential biomarker and the molecular formula of the variable of significant difference between the model group and the control group was further identified. Cross validation parameters R^2Y and Q^2were used to describe the PLS-DA score plot, which represented the total explanatory variables of the […] and the predictability of the model, respectively. When a cumulative value of R^2Y and Q^2 was greater than 0.8, the model may be considered to be reliable. The relative distances between other groups and the control group in the PLS-DA score plot were calculated using the average values of all samples (X and Y axes) of the control group as reference points. This quantitative value can be used as an evaluation index of pharmacodynamics and metabonomics to solve many problems in lacking of accurate and quantitative evaluation methods for pharmacodynamics. SPSS 21.0 software was used for statistical analysis of the relevant data. T-test analysis was performed among groups to verify the significance of the difference of potential biomarkers in different groups. The data were expressed as mean±SD, and the data were considered to have a statistical significance with P<0.05. […]

HK-2 cells [3] = assay: Morphology of high-glucose induced HK-2 cells; assay type: cell-based, human; conditions: 50 μmol/L, 48 hours
[4] = rats; cited from earlier work
[5] = system: nephrotoxic nephritis rats model; conditions: cited from earlier work
[6] = system: NOX1, NOX2, NOX4, α-SMA, E-cadherin, NF-κB p65, TGF-β1, Smad2, Smad3, Smad4 and Smad7 in HK-2 cells; assay: mRNA expression in high-glucose induced HK-2 cells (Real-time PCR); assay type: cell-based, human; conditions: 50 μmol/L, HK-2 cells with high glucose-induced injuries
From the text: (§2) In the present invention, human renal tubular epithelial (HK-2) cells are selected to establish a high sugar-induced HK-2 cell injury model, and TLR capsules, TLR extract and its major active components verbascoside and catalpol are used for intervention. The expression quantity of related proteins and mRNA in each cell is detected using Western blotting method and Real-time PCR, and the secretion of related factors in cell supernatant is detected using ELISA. In addition, the effect of TLR on regulating oxidative stress reactions of HK-2 cells and TGF-β/smad signal pathway is further explored.
as §1

[7] = system: MCP-1, IL-1β, TNF-α and IL-6 in supernatant of HK-2 cells; assay: Secretion of inflammatory factors in supernatant of HK-2 cells (ELISA); assay type: cell-based, human; conditions: 50 μmol/L, HK-2 cells with high glucose-induced injuries
From the text: as §2, §1

[8] = 50 μmol·L^−1, high glucose 30 mmol/L
[9] = 10 μmol·L^−1, high glucose 30 mmol/L
[10] = 25 μmol·L^−1, high glucose 30 mmol/L
[11] = 100 μmol·L^−1, high glucose 30 mmol/L

Compound	effect on the proliferation of HK-2 (HK-2 cells [1])	effect on the formation of EMT [2]	results of histological examination of kidney (HE, PAS mean OD) (kidneys of db/db mice)	OD (HK-2 cells [1]; [8])	inhibition ratio % (HK-2 cells [1]; [8]) [%]	contents of FBG, T-CHO, TG, GOT, GPT, INS, BUN, mALB and Scr (db/db mice)	Relative distance between administration group and control group in PLS-DA score plot, ESI − (db/db mice serum)	Relative distance between administration group and control group in PLS-DA score plot, ESI + (db/db mice serum)	cell morphologies (HK-2 cells [3])	other results
OC[C@H]1O[C@@H](O[C@@H]2OC=C[C@H]3[C@H](O)[C@@H]4O[C@]4(CO)[C@@H]23)[C@H](O)[C@@H](O)[C@@H]1O [catalpol, reference compound]	had an effect on inhibiting	had an effect on inhibiting								
CCCCC1=NC2(CCCC2)C(=O)N1Cc1ccc(-c2ccccc2-c2nnn[nH]2)cc1 [irbesartan, reference compound]			close to those of the control group	0.576 ± 0.02	80.57	tended to be normal	32.16 ± 10	21.56 ± 8.01	close to those of the control group	
CN(C)C(=N)N=C(N)N [metformin]						tended to be normal	34.94 ± 2.74	36.57 ± 1.53		
C[C@@H]1O[C@@H](O[C@@H]2[C@@H](O)[C@H](OCCc3ccc(O)c(O)c3)O[C@H](CO)[C@H]2OC(=O)/C=C/c2ccc(O)c(O)c2)[C@H](O)[C@H](O)[C@H]1O [verbascoside]	had an effect on inhibiting	had an effect on inhibiting	close to those of the control group	0.557 ± 0.012	73.95	tended to be normal	28.59 ± 3.33	31.62 ± 1.07	close to those of the control group	inhibition ratio % (HK-2 cells [1]; 5 μmol·L^−1, high glucose 30 mmol/L): 25.52%; OD (HK-2 cells [1]; 5 μmol·L^−1, high glucose 30 mmol/L, control 0.632, model 0.345): 0.418 ± 0.008; OD (HK-2 cells [1]; [9]): 0.457 ± 0.014; inhibition ratio % (HK-2 cells [1]; [9]): 39.02%; OD (HK-2 cells [1]; [10]): 0.501 ± 0.015; inhibition ratio % (HK-2 cells [1]; [10]): 54.36%; OD (HK-2 cells [1]; [11]): 0.559 ± 0.01; inhibition ratio % (HK-2 cells [1]; [11]): 74.65%; proliferation of HK-2 cells under a high glucose condition (HK-2 cells [1]; 5, 10, 25, 50, 100 μmol/L): could promote the proliferation of HK-2 cells under a high glucose condition, and the promotion of the proliferation was dose-dependent; protein expressions of NOX1, NOX2, NOX4, α-SMA, E-cadherin, NF-κB p65, TGF-β1, Smad2, Smad3, Smad4 and Smad7 ([2]; 50 μmol/L, HK-2 cells with high-glucose induced injuries): all returned to normal; oral bioavailability [4]: low; adverse effects [5]: without causing obvious adverse effects; renal function injury [5]: capable of improving; mRNA expressions of NOX1, NOX2, NOX4, α-SMA, E-cadherin, NF-κB p65, TGF-β1, Smad2, Smad3, Smad4 and Smad7 [6]: all returned to normal; expression levels of MCP-1, IL-1β, TNF-α and IL-6 in the supernatant [7]: returned to normal
